The structures appear in SMILES notation.

These results are taken from the METLIN SMRT retention time set (Domingo-Almenara et al. 2019).

The nature of the data set: gradient 5% acetonitrile 3 min, to 50% in 2 min, to 85% in 15 min, held 3 min, 100 µL/min. Conditions: column: Zorbax Extend-C18 2.1 x 50 mm; eluents: water / acetonitrile, 0.1% formic acid. Summed up: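 Each retention time is based on an adduct peak selected computationally and verified by manual inspection. Measurements used HPLC–quadrupole time-of-flight mass spectrometry in positive and negative ionization mode on mixtures of ~100 pure standards. Chromatography ran on a Zorbax Extend-C18 column (2.1 × 50 mm, 1.8 μm) at 100 μL/min with water and acetonitrile, each containing 0.1% formic acid, and dead and dwell volumes of 40 μL and 900 μL.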
`O=C(Nc1cccc(F)c1)C1CCCN(S(=O)(=O)c2c[nH]c(C(=O)N3CCCCCC3)c2)C1` (centres undefined): the RP-LC retention time is 919 s.

With `O=C(Nc1nccs1)C1CCCN(c2ncnc3c2nc2n3CCCCC2)C1` (centres undefined), the RP-LC retention time was 730 s.

`CCc1cccc(NC(=O)c2cc3sccc3n2Cc2ccc(Cl)cc2)c1`: the RP-LC retention time was found to be 1340 s.

`COc1cc(-c2noc(Cn3ccn(-c4ccccc4)c(=O)c3=O)n2)cc(OC)c1OC` displayed an RP-LC retention time of 749 s.

`Cc1nc2cc(N3CCC(C(=O)NCc4cccs4)CC3)cnc2nc1C` registered an RP-LC retention time of 670 s.

Take `Cc1cccc(NC(=O)N2CCC(n3cnc4ccc(C)cc4c3=O)CC2)c1`: the RP-LC retention time worked out at 836 s.

The compound `Cc1ccc(CN2C(=O)CN(S(C)(=O)=O)CC2(C)C(=O)NC2CCCCCCC2)cc1` (centres undefined) displayed an RP-LC retention time of 930 s.

The compound `CCCc1ccc(S(=O)(=O)N2CCCC2c2nc(-c3ccc(F)cc3)no2)cc1` (centres undefined) registered an RP-LC retention time of 1270 s.

As to `CCCC(=O)Nc1nc(-c2ccccc2)c(C(=O)OCC)s1`, the RP-LC retention time was found to be 973 s.

As for `COc1cc(NC(=O)Cn2nc3c4cc(C)ccc4ncn3c2=O)cc(OC)c1`, the RP-LC retention time is 682 s.

Turning to `CC(Oc1ccc(=O)n(-c2ccc(F)cc2)n1)C(=O)Nc1ccc(Cl)cc1` (centres undefined), the RP-LC retention time came out at 845 s.

The compound `Cc1ccc(F)cc1NS(=O)(=O)c1ccc(-c2nnc(C3CCC3)o2)o1` displayed an RP-LC retention time of 931 s.

`O=C(Nc1nc2c(F)cc(F)cc2s1)C1CCCN(S(=O)(=O)c2cccs2)C1` (centres undefined) came in with an RP-LC retention time of 767 s.

Compound `Cc1cccc(OCc2nc(-c3ccc4c(c3)nnn4CCC(=O)N3CCOCC3)no2)c1` registered an RP-LC retention time of 863 s.

For the compound `COc1ccc(NC(=O)N2CCCC2c2nc(-c3ccccc3OC)no2)cc1OC` (centres undefined), the RP-LC retention time was determined as 941 s.

`CN1CCN(S(=O)(=O)c2ccc(F)c(Cl)c2)CC1` displayed an RP-LC retention time of 530 s.

In turn, `COc1cccc(CN2N=C(C(=O)N3CCOCC3)S(=O)(=O)c3cc(Cl)ccc32)c1` had an RP-LC retention time of 887 s.

With `O=C(NC1CCCC1)C1CC(=O)N(c2ccc3c(c2)CCN3C(=O)C2CC2)C1` (centres undefined), the RP-LC retention time amounted to 704 s.

`CS(=O)(=O)N1CCC(OC2CCN(C(=O)Nc3ccccc3)CC2)CC1` came in with an RP-LC retention time of 709 s.

`Cc1ccc(CNC(=O)C(C)Oc2cc(C(F)(F)F)c3c(C)nn(C)c3n2)cc1` (centres undefined): the RP-LC retention time was determined as 1030 s.

Regarding `CCC(C)OC(=O)c1[nH]c2c(c1C)C(=O)CC(c1ccc(N(C)C)cc1)C2` (centres undefined), the RP-LC retention time stood at 764 s.

For `COc1ccc(-c2noc(-c3nc(C(C)C)no3)n2)cc1`, the RP-LC retention time amounted to 1120 s.

With `CCCNc1cc(N2CCC(CCC(=O)N(C)Cc3ccccc3)CC2)ncn1`, the RP-LC retention time is 702 s.

Compound `O=C(c1ccsc1)N1CCC(N(C(=O)Cc2ccccc2)C2CCOCC2)CC1` displayed an RP-LC retention time of 774 s.

The compound `Cn1cc2c3c(cccc31)CN(C(=O)Nc1ccc(Cl)cc1F)CC2` came in with an RP-LC retention time of 1250 s.

`CC1=C(c2cccc(Cl)c2)S(=O)(=O)N=C1N1CCCN(C(=O)c2ccccn2)CC1`: the RP-LC retention time was determined as 760 s.

For `CSc1ccc(CNC(=O)c2nnc(-c3ccc(S(=O)(=O)N(C)C)cc3)o2)cc1`, the RP-LC retention time was determined as 889 s.

In turn, `CCOc1ccccc1NC(=O)C1CCN(c2cnc(N3CCCCC3)nc2)CC1` came in with an RP-LC retention time of 928 s.

`CCOC(=O)c1c(S(=O)(=O)N2CCC(C(=O)Nc3cc(C)cc(C)c3)CC2)c(C)n(C)c1C` yielded an RP-LC retention time of 942 s.

With `CCOC(=O)C1CCN(C(=O)Cn2c(=O)oc3ccc(C(=O)N4CCCCC4)cc32)CC1`, the RP-LC retention time came out at 759 s.

Regarding `CC(C)c1ccc(N2C=C(C(=O)N3CCCCC3)S(=O)(=O)c3ccccc32)cc1`, the RP-LC retention time was 1040 s.

Turning to `Cc1cc(N2CCCC2)n2nc(CN3CCN(c4ccccc4C)CC3)nc2n1`, the RP-LC retention time came to 1210 s.

As for `COc1ccccc1NC(=O)C1CC(=O)N(CCc2c[nH]c3ccc(Cl)cc23)C1` (centres undefined), the RP-LC retention time came out at 829 s.

With `CCn1nc(CNC(=O)c2ccc3c(c2)OCO3)c2ccccc21`, the RP-LC retention time was 804 s.

In the case of `Cn1nc(-c2nc(C3CC3)no2)c2c1CCN(S(=O)(=O)c1cccs1)C2`, the RP-LC retention time was 861 s.

`CC(=O)c1ccc(N2CCN(C(=O)Cn3cccc3-c3nnc(C4CCC4)o3)CC2)cc1` showed an RP-LC retention time of 824 s.

Turning to `CC1=C(c2ccc(F)cc2)S(=O)(=O)N=C1N1CCCN(C(=O)C2CCCC2)CC1`, the RP-LC retention time was 828 s.

For the compound `COc1cccc(CN2CCC3(CC2)CC(O)CCO3)c1OC` (centres undefined), the RP-LC retention time came to 582 s.

For the compound `COc1ccccc1NC(=O)c1cnc(-c2ccccc2)nc1-c1ccncc1`, the RP-LC retention time is 887 s.

On to `Cc1nc(C2CCOCC2)n(C2CCN(S(=O)(=O)c3ccc(Cl)cc3C)C2)n1` (centres undefined), for which the RP-LC retention time turned out to be 771 s.

Compound `O=S(=O)(Nc1ccc(F)cc1)c1cccn2cnnc12` registered an RP-LC retention time of 659 s.

Compound `CCN1CCN(C(=O)CCC2CCCN(c3cc(NC4CC4)ncn3)C2)CC1` (centres undefined) gave an RP-LC retention time of 555 s.

In turn, `Cc1cnc(C2CN(C(=O)c3ccsc3)C2)n1CC1CC1` showed an RP-LC retention time of 595 s.

Turning to `Cn1c(=O)c(C(=O)NC2CC2)nc2cccnc21`, the RP-LC retention time stood at 613 s.

In turn, `Cc1ccc(Cl)cc1N1CCN(C(=O)C2CC(=O)c3ccccc32)CC1` (centres undefined) showed an RP-LC retention time of 922 s.

Turning to `Cc1ccc(C)c(N2CCN(C(=O)C3CCN(S(=O)(=O)c4cn(C)c(C)n4)CC3)CC2)c1`, the RP-LC retention time is 822 s.

For the compound `Cc1ccc(S(=O)(=O)N2C(=O)CCC2C(=O)NC2CCCCC2)cc1C` (centres undefined), the RP-LC retention time is 916 s.

On to `O=C1C(c2cccs2)N(Cc2ccc3c(c2)OCO3)C(=O)CN1c1ccccc1` (centres undefined), for which the RP-LC retention time was found to be 899 s.

`Cc1ccc(-c2csc(Nc3ccccn3)n2)cc1`: the RP-LC retention time was 918 s.

The compound `CN1Cc2sccc2C(c2ccc(O)c(O)c2)C1` (centres undefined) had an RP-LC retention time of 628 s.

`CCn1cc(CC(=O)NCc2ccc(OC)cc2)c2cccnc21` showed an RP-LC retention time of 716 s.

`CCc1cccc(NC(=O)c2csc(-c3cn(C)c4ncccc34)n2)c1` returned an RP-LC retention time of 1120 s.

Take `Cc1ccc2ncn(C3CCN(C(=O)Nc4ccc(F)cc4)CC3)c(=O)c2c1`: the RP-LC retention time was found to be 765 s.

`Cc1ccc(C)c(NS(=O)(=O)c2cc3n(c2)CCCNC3=O)c1` showed an RP-LC retention time of 663 s.

`COc1ccc(-c2cn3c(CC(=O)N4CCN(C5CCCCC5)CC4)csc3n2)cc1OC` registered an RP-LC retention time of 594 s.

Consider `CCCN1CCN(c2cc(C(=O)O)c3cc(NS(=O)(=O)c4ccccc4Cl)ccc3n2)CC1`, for which the RP-LC retention time was 595 s.

Compound `Cc1cc(C(=O)NCC2Cn3cccc3C(=O)N2C)nn1C` (centres undefined) showed an RP-LC retention time of 599 s.

The compound `CC1=C(c2ccc(F)cc2)S(=O)(=O)N=C1N1CCCN(C(=O)NCC(C)C)CC1` yielded an RP-LC retention time of 793 s.

With `CCC1CN(C(=O)N2CCC(C(=O)NCCN3CCCCCC3)CC2)c2ccccc2O1` (centres undefined), the RP-LC retention time came to 660 s.
